Earlier results on three substances are cited in US10285971B2, “Formulations of water-soluble derivatives of vitamin E and soft gel compositions, concentrates and powders containing same” (VIRUN, INC., priority 2014, dated 2019).

Where only a bound is given, the exact number is not on record here.

With sucrose dipalmitate, the HLB value was 7.4.

Regarding sucrose distearate, the HLB value was 3. Take sucrose monopalmitate: the HLB value was over 10.
